Experiments:
[1] = test system: Beagle dogs; experiment: Ocular surface hyperemia in dogs; type: in vivo; details: dog, topical, score: trace 0.5, mild 1, moderate 2, severe 3
Experimental: (§1) • Intraocular Pressure (IOP) Intraocular pressure studies in dogs involved pneumatonometry performed in conscious, Beagle dogs of both sexes (10–15 kg). The animals remained conscious throughout the study and were gently restrained by hand. Drugs were administered topically to one eye as a 25 μL volume drop, the other eye received 25 μL vehicle (0.1% polysorbate 80:10 mM TRIS) as a control. Proparacaine (0.1%) was used for corneal anesthesia during tonometry. Intraocular pressure was determined just before drug administration and at 2, 4 and 6 hr thereafter on each day of the 5 day study. Drug was administered immediately after the first IOP reading. • An analogous procedure was carried out with cynomolgus monkeys with measurements at 2, 4, 6, and 24 hours after a single dose. • Pupil Diameter • Dog pupil diameter was measured using an optistick (a mm ruler which included half-circle references of standard widths (mm) for reference. Gently restraining the dog by hand, pupil diameter was determined by matching a half-circle to the pupil in normal room light. In dogs with very dark pupils a specialized penlight was used, but only very briefly to avoid pupil constriction. Pupil diameter was measured at the same time as IOP and hyperemia. • Ocular Surface Hyperemia • Ocular surface hyperemia was visually assessed and scored according to a system typically used clinically.
• Ocular surface hyperemia was evaluated at the same time points as intraocular pressure measurement. It should be noted that untreated dog eyes frequently have a pink/red tone. Thus, values of trace or even mild are not necessarily out of the normal range.

[2] = test system: Beagle dogs; experiment: Intraocular pressure in dogs (pneumatonometry); type: in vivo; details: dog, topical 25 μL drop, 5 day study
Experimental: as §1

[3] = biological target: T1, HEP2 (Homo sapiens, UniProt P43116); experiment: Radioligand binding, EP2 receptor; details: [3H]PGE2 5 nM, HEK-293 membranes
T1 construct: expressed in transfected cells; host or cells: HEK-293
Experimental: (§2) HEK-293 cells stably expressing the human or feline FP receptor, or EP1, EP2, or EP4 receptors were washed with TME buffer, scraped from the bottom of the flasks, and homogenized for 30 sec using a Brinkman PT 10/35 polytron. TME buffer was added to achieve a final 40 ml volume in the centrifuge tubes (the composition of TME is 100 mM TRIS base, 20 mM MgCl2, […]; 10N HCl is added to achieve a pH of 7.4).
(§3) The cell homogenate was centrifuged at 19000 r.p.m. for 20 min at 4° C. using a Beckman Ti-60 rotor. The resultant pellet was resuspended in TME buffer to give a final 1 mg/ml protein concentration, as determined by Biorad assay. Radioligand binding competition assays vs. [^3H-]17-phenyl PGF2α (5 nM) were performed in a 100 μl volume for 60 min. Binding reactions were started by adding plasma membrane fraction. The reaction was terminated by the addition of 4 ml ice-cold TRIS-HCl buffer and rapid filtration through glass fiber GF/B filters using a Brandel cell harvester. The filters were washed 3 times with ice-cold buffer and oven dried for one hour. Non-specific binding was determined with 10 uM unlabeled 17-phenyl PGF2α.
(§4) [^3H-] PGE2 (5 nM; specific activity 180 Ci mmol) was used as the radioligand for EP receptors. Binding studies employing EP1, EP2, EP3, EP4 were performed in duplicate in at least three separate experiments. A 200 μl assay volume was used. Incubations were for 60 min at 25° C. and were terminated by the addition of 4 ml of ice-cold 50 mM TRIS-HCl, followed by rapid filtration through Whatman GF/B filters and three additional 4 ml washes in a cell harvester (Brandel). Non-specific binding determined with 10^−5M of unlabeled PGE2.

[4] = biological target: T2, hEP3A/Gqi5 (Homo sapiens, UniProt P43115); experiment: FLIPR calcium signal, hEP3A/Gqi5; type: cell-based; details: HEK-293 (EBNA) cells, read-out: FUNCTIONAL EC50 HEP3A
T2 construct: expressed in transfected cells; host or cells: HEK-293 (EBNA)
T2 sequence (P43115 1-390): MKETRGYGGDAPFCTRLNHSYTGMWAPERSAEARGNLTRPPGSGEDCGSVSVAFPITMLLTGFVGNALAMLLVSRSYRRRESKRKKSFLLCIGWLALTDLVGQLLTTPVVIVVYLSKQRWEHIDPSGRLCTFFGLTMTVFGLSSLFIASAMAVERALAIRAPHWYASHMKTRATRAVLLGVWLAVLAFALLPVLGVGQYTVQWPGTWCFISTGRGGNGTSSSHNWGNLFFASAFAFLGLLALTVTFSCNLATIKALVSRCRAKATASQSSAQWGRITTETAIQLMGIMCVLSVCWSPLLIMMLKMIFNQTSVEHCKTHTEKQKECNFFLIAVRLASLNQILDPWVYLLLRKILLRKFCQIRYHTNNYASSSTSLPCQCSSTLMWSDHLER
Experimental: (§5) HEK-293 (EBNA) cells, stably expressing one type or subtype of recombinant human prostaglandin receptors (prostaglandin receptors expressed: hDP/Gqs5; hEP1; hEP2/Gqs5; hEP3A/Gqi5; hEP4/Gqs5; hFP; hIP; hTP), were cultured in 100 mm culture dishes in high-glucose DMEM medium containing 10% fetal bovine serum, 2 mM 1-glutamine, 250 μg/ml geneticin (G418) and 200 μg/ml hygromycin B as selection markers, and 100 units/ml penicillin G, 100 μg/ml streptomycin and 0.25 μg/ml amphotericin B. • (b) Calcium Signal Studies on the FLIPR™
(§6) Cells were seeded at a density of 5×10^4 cells per well in Biocoat® Poly-D-lysine-coated black-wall, clear-bottom 96-well plates (Becton-Dickinson) and allowed to attach overnight in an incubator at 37° C. Cells were then washed two times with HBSS-HEPES buffer (Hanks Balanced Salt Solution without bicarbonate and phenol red, 20 mM HEPES, pH 7.4) using a Denley Cellwash plate washer (Labsystems). After 45 minutes of dye-loading in the dark, using the calcium-sensitive dye Fluo-4 AM at a final concentration of 2 μM, plates were washed four times with HBSS-HEPES buffer to remove excess dye leaving 100 μl in each well. Plates were re-equilibrated to 37° C. for a few minutes.
(§7) Cells were excited with an Argon laser at 488 nm, and emission was measured through a 510–570 nm bandwidth emission filter (FLIPR™, Molecular Devices, Sunnyvale, Calif.). Drug solution was added in a 50 μl volume to each well to give the desired final concentration. The peak increase in fluorescence intensity was recorded for each well. On each plate, four wells each served as negative (HBSS-HEPES buffer) and positive controls (standard agonists: BW245C (hDP); PGE2 (hEP1; hEP2/Gqs5; hEP3A/Gqi5; hEP4/Gqs5); PGF2α (hFP); carbacyclin (hIP); U46619 (hTP), depending on receptor). The peak fluorescence change in each drug-containing well was then expressed relative to the controls.
(§8) Compounds were tested in a high-throughput (HTS) or concentration-response (CoRe) format. In the HTS format, forty-four compounds per plate were examined in duplicates at a concentration of 10^−5 M. To generate concentration-response curves, four compounds per plate were tested in duplicates in a concentration range between 10^−5 and 10^−11 M. The duplicate values were averaged. In either, HTS or CoRe format each compound was tested on at least 3 separate plates using cells from different passages to give an n≧3.

[5] = biological target: T3, hTP (Homo sapiens, UniProt P21731); experiment: FLIPR calcium signal, hTP; type: cell-based; details: HEK-293 (EBNA) cells, read-out: FUNCTIONAL EC50 HTP
T3 construct: expressed in transfected cells; host or cells: HEK-293 (EBNA)
T3 sequence (P21731 1-343): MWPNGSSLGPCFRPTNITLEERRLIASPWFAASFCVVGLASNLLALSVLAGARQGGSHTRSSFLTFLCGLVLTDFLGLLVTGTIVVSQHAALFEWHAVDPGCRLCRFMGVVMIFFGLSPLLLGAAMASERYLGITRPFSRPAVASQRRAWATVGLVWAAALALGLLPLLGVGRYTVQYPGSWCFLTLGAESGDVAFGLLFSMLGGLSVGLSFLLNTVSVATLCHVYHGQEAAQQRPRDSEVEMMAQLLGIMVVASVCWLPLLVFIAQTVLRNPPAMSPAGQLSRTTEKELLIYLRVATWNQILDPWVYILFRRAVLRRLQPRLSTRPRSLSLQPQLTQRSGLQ
Experimental: as §5, §6, §7, §8

[6] = biological target: T4, hEP4/Gqs5 (Homo sapiens, UniProt P35408); experiment: FLIPR calcium signal, hEP4/Gqs5; type: cell-based; details: HEK-293 (EBNA) cells, read-out: FUNCTIONAL EC50 HEP4
T4 construct: expressed in transfected cells; host or cells: HEK-293 (EBNA)
Experimental: as §5, §6, §7, §8

[7] = biological target: T5, HEP4 (Homo sapiens, UniProt P35408); experiment: Radioligand binding, EP4 receptor; details: [3H]PGE2 5 nM, HEK-293 membranes
T5 construct: expressed in transfected cells; host or cells: HEK-293
Experimental: as §2, §3, §4

[8] = biological target: T6, HEP3D (Homo sapiens, UniProt P43115); experiment: Radioligand binding, EP3 receptor; details: [3H]PGE2 5 nM
T6 sequence (P43115 1-374 isoform P43115-4): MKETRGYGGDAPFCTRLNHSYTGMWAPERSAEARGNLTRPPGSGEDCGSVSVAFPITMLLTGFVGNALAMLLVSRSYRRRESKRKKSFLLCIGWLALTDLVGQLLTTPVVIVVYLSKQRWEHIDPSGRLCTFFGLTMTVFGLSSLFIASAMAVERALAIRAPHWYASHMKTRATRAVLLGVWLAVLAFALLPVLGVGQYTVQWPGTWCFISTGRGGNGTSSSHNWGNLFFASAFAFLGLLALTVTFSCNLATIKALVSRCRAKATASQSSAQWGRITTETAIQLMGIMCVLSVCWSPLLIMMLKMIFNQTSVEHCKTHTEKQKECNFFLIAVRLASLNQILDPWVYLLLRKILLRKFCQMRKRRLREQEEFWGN
Experimental: as §2, §3, §4

T5 sequence (P35408 whole entry): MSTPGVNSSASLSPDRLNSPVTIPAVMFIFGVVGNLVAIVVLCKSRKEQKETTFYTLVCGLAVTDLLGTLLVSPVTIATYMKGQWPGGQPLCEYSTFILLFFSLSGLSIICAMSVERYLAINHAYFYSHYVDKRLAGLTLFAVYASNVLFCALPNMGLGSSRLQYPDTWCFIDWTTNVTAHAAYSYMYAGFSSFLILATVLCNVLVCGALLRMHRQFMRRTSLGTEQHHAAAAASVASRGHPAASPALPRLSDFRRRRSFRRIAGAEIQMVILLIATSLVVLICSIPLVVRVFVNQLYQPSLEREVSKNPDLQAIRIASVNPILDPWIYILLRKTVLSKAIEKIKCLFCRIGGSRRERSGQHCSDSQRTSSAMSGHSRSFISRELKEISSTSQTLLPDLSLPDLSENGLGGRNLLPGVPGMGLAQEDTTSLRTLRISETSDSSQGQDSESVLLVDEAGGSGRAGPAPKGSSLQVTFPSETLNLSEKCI
T4 sequence (P35408 whole entry): as above
T1 sequence (P43116 whole entry): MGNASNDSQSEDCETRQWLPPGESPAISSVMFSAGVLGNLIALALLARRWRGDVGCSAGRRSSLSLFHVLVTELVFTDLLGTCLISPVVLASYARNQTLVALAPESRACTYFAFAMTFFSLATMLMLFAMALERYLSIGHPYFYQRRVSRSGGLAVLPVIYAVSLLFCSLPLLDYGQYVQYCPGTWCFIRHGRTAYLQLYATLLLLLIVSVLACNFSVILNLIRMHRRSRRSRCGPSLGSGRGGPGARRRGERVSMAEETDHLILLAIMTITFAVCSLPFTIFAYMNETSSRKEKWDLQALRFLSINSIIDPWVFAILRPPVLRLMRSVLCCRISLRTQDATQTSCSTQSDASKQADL

Structure (SMILES) | IC50 [3] [nM] | EC50 [4] [nM] | EC50 [5] [nM] | EC50 [6] [nM] | IC50 [7] [nM] | IC50 [8] [nM] | Max hyperemia ([1]; Conc. 0.03%) | Max. ΔIOP ([2]; Conc. 0.03%) [mm Hg] | Max hyperemia ([1]; Conc. 0.1%) | Max. ΔIOP ([2]; Conc. 0.1%) [mm Hg]
CC(C)OC(=O)CSCCCS[C@H]1C(=O)C[C@@H](CO)[C@@H]1/C=C/C(O)Cc1ccccc1 (single isomer, unassigned) [Compound 150, {3-[3-Hydroxymethyl-2-(3-hydroxy-4-phenyl-but-1-enyl)-5-oxo-cyclopentylsulfanyl]-propylsulfanyl}-acetic acid isopropyl ester] | – | – | – | – | – | – | 0.9 | −5.5 | – | –
O=C(O)CSCCCS[C@H]1C(=O)CC[C@@H]1/C=C/C(O)CCc1ccc2ccccc2c1 (single isomer, unassigned) [Compound 153] | > 10000 | > 10000 | > 10000 | 0.3 | 140 | – | – | – | 1.8 | −4.4
O=C(O)CSCCCS[C@H]1C(=O)CC[C@@H]1/C=C/C(O)CCc1ccc2ccccc2c1 (single isomer, unassigned) [drawing 36] | 8100 | – | – | 1 | 140 | – | – | – | – | –
O=C(O)CSCCCS[C@H]1C(=O)C[C@@H](CO)[C@@H]1/C=C/C(O)CCc1ccc2ccccc2c1 (stereo partly drawn) [Compound 141b, {3-[(1R,2S,3R)-3-Hydroxymethyl-2-((E)-3-hydroxy-5-naphthalen-2-yl-pent-1-enyl)-5-oxo-cyclopentylsulfanyl]-propylsulfanyl}-acetic acid] | – | – | – | 219 | 400 | – | – | – | 0.7 | −1.6
O=C(O)CSCCCS[C@H]1C(=O)CC[C@@H]1/C=C/C(O)CCc1cc2ccccc2s1 (stereo partly drawn) [drawing 25, {3-[(1R,2R)-2-((E)-5-Benzo[b]thiophen-2-yl-3-hydroxy-pent-1-enyl)-5-oxo-cyclopentylsulfanyl]-propylsulfanyl}-acetic acid] | > 10000 | 1950 | > 10000 | 3.7 | 44 | > 10000 | – | – | – | –

The next lines start with results.

IC50 [3] [nM] | EC50 [4] [nM] | EC50 [5] [nM] | EC50 [6] [nM] | IC50 [7] [nM] | IC50 [8] [nM] | Structure (SMILES) | Max hyperemia ([1]; Conc. 0.03%) | Max. ΔIOP ([2]; Conc. 0.03%) [mm Hg] | Max hyperemia ([1]; Conc. 0.1%) | Max. ΔIOP ([2]; Conc. 0.1%) [mm Hg]
– | > 10000 | > 10000 | 0.09 | 19 | > 10000 | COC(=O)CSCCCS[C@H]1C(=O)CC[C@@H]1/C=C/C(O)Cc1ccccc1 (single isomer, unassigned) [drawing 46] | – | – | – | –
– | > 10000 | > 10000 | – | 11 | > 10000 | O=C(O)CSCCCS[C@H]1C(=O)CC[C@@H]1/C=C/C(O)Cc1ccccc1 (single isomer, unassigned) [drawing 48] | – | – | – | –
> 10000 | – | – | 2.4 | 45 | > 10000 | O=C(O)CSCCCS[C@H]1C(=O)CC[C@@H]1/C=C/C(O)CCc1cc2ccccc2s1 (stereo partly drawn) [drawing 26, {3-[(1R,2R)-2-((E)-5-Benzo[b]thiophen-2-yl-3-hydroxy-pent-1-enyl)-5-oxo-cyclopentylsulfanyl]-propylsulfanyl}-acetic acid] | – | – | – | –
> 10000 | – | – | 11 | 300 | – | COC(=O)CSCCCS[C@H]1C(=O)CC[C@@H]1/C=C/C(O)CCc1cc2ccccc2s1 (stereo partly drawn) [drawing 28, {3-[(1R,2R)-2-((E)-5-Benzo[b]thiophen-2-yl-3-hydroxy-pent-1-enyl)-5-oxo-cyclopentylsulfanyl]-propylsulfanyl}-acetic acid methyl ester] | – | – | – | –
– | > 10000 | > 10000 | 0.4 | 26 | > 10000 | O=C(O)CSCCCS[C@H]1C(=O)CC[C@@H]1/C=C/C(O)Cc1ccc2ccccc2c1 (stereo partly drawn) [{3-[(1R,2R)-2-((E)-3-Hydroxy-4-naphthalen-2-yl-but-1-enyl)-5-oxo-cyclopentylsulfanyl]-propylsulfanyl}-acetic acid] | – | – | – | –
